How the values were obtained:
CYP3A4 = CYP3A4 (Homo sapiens, UniProt P08684); assay: CYP3A4 inhibition
[1] = Parallel artificial membrane permeability assay; conditions: hexadecane membrane
[2] = test system: Hh pathway (endogenous Gli1 mRNA levels), ASZ-001 cells; assay: cells; conditions: Mus musculus, ASZ001, 48 h, read-out: IC50 (Hh pathway inhibition, Gli1 mRNA), ASZ-001 cells, 48 h incubation, Mean ± SEM
Metabolic stability = conditions: human, microsomes
[3] = test system: Hh pathway (endogenous Gli1 mRNA levels), ASZ-001 cells; conditions: at the concentrations tested
[4] = biological target: T1, Breast Cancer Resistance Protein (BCRP) (Homo sapiens, UniProt Q9UNQ0); assay: Efflux pump substrate, BCRP; format: in vitro ADME
T1 sequence (Q9UNQ0 1-655): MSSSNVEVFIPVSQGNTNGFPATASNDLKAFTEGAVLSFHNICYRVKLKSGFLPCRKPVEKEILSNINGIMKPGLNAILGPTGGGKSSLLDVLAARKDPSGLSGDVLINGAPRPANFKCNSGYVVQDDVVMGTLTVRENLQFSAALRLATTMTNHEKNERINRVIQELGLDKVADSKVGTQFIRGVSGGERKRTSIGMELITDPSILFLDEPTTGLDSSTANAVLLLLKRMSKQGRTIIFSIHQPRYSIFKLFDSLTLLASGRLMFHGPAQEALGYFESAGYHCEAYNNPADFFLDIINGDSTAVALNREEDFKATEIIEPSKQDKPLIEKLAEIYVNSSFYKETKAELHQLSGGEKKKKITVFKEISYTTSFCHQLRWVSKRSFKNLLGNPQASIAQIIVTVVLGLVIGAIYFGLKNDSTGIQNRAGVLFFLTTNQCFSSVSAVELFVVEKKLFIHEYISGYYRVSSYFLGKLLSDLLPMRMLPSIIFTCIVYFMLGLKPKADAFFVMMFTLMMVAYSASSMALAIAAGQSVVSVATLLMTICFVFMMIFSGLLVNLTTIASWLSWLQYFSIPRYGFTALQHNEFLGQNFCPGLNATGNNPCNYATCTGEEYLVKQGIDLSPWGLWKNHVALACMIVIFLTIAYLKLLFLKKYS

P-glycoprotein (P-gp) = P-glycoprotein (P-gp) (Homo sapiens, UniProt P08183); assay: Efflux pump substrate, P-gp; format: in vitro ADME
Sequence of P-glycoprotein (P-gp) (P08183 whole entry): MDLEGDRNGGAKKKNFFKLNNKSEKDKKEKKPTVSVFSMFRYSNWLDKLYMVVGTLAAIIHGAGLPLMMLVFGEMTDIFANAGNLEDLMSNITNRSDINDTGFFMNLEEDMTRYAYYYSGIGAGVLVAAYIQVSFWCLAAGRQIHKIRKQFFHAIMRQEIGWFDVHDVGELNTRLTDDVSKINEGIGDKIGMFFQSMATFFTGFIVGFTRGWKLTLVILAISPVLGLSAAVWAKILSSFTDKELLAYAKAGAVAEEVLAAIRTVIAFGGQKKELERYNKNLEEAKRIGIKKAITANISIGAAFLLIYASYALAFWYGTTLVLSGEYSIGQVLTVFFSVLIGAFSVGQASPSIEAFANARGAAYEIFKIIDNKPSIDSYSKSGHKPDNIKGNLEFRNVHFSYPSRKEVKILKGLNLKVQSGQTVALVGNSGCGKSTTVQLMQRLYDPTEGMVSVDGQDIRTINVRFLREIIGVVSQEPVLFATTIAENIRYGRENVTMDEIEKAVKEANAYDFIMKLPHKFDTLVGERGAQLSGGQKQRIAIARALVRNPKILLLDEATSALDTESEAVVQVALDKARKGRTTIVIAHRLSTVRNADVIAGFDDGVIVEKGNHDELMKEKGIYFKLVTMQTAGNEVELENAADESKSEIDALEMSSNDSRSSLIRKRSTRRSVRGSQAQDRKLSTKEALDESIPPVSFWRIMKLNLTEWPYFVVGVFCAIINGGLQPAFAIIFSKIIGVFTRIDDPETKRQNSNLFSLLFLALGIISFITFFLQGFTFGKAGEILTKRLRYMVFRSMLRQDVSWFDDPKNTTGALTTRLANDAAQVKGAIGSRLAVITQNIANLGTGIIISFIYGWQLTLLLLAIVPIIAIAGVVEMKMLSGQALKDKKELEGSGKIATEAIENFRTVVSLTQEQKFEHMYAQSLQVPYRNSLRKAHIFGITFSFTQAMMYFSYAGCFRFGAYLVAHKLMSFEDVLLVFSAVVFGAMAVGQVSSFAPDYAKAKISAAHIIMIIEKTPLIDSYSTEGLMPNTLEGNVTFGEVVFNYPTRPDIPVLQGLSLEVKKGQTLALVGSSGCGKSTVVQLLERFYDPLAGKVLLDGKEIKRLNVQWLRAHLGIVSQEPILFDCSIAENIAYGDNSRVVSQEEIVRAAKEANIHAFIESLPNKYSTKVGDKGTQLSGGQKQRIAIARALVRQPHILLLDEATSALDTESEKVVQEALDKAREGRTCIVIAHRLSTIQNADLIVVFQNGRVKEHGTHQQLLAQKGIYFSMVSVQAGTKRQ

Sequence of CYP3A4 (P08684 whole entry): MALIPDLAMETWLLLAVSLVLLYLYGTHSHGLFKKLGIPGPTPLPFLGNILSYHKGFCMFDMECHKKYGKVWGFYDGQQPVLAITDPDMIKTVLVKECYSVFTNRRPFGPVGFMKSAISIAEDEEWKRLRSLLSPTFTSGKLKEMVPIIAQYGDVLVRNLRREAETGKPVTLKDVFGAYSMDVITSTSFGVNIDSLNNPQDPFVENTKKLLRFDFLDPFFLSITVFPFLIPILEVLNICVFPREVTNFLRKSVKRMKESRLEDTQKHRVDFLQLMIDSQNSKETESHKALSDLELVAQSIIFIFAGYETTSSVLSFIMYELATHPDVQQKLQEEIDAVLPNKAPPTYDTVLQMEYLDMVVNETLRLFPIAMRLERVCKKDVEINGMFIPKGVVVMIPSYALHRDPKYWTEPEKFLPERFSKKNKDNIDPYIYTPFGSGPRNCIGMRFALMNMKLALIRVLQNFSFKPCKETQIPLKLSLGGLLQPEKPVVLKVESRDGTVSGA

Compound	IC50 (CYP3A4) [µM]	IC50 [2] [µM]	further results
CC[C@@H](C)n1ncn(-c2ccc(N3CCN(c4ccc(OC[C@@H]5CO[C@](C)(c6ccc(Cl)cc6Cl)O5)cc4)CC3)cc2)c1=O [Compound 2a]	> 20	–	–
CC[C@@H](C)n1ncn(-c2ccc(N3CCN(c4ccc(OC[C@@H]5CO[C@@](C)(c6ccc(Cl)cc6Cl)O5)cc4)CC3)cc2)c1=O [Compound 2b]	1.02	–	PAMPA -log Pe [1]: 9.0
C[C@@]1(c2ccc(Cl)cc2Cl)OC[C@@H](COc2ccc(N3CCN(c4ccc(NC(=O)c5ccccc5)cc4)CC3)cc2)O1 [Compound 10, N-(4-(4-(4-(((2R,4R)-2-(2,4-dichlorophenyl)-2-methyl-1,3-dioxolan-4-yl)methoxy)phenyl)piperazin-1-yl)phenyl)benzamide]	–	> 10	–
C[C@@]1(c2ccc(Cl)cc2Cl)OC[C@@H](COc2ccc(N3CCN(c4ccc(NC(=O)c5ccc6ccccc6c5)cc4)CC3)cc2)O1 [Compound 11, N-(4-(4-(4-(((2R,4R)-2-(2,4-dichlorophenyl)-2-methyl-1,3-dioxolan-4-yl)methoxy)phenyl)piperazin-1-yl)phenyl)-2-naphthamide]	–	> 10	–
C[C@@]1(c2ccc(Cl)cc2Cl)OC[C@@H](COc2ccc(N3CCN(c4ccc(NC(=O)c5cccnc5)cc4)CC3)cc2)O1 [Compound 13, N-(4-(4-(4-(((2R,4R)-2-(2,4-dichlorophenyl)-2-methyl-1,3-dioxolan-4-yl)methoxy)phenyl)piperazin-1-yl)phenyl)nicotinamide]	> 30	–	PAMPA -log Pe [1]: 7.9 ± 0.03
C[C@@]1(c2ccc(Cl)cc2Cl)OC[C@@H](COc2ccc(N3CCN(c4ccc(NC(=O)c5ccncc5)cc4)CC3)cc2)O1 [Compound 14, N-(4-(4-(4-(((2R,4R)-2-(2,4-dichlorophenyl)-2-methyl-1,3-dioxolan-4-yl)methoxy)phenyl)piperazin-1-yl)phenyl)isonicotinamide]	–	> 10	–
C[C@]1(c2ccc(Cl)cc2Cl)OC[C@@H](COc2ccc(N3CCN(c4ccc(NC(=O)c5ccccc5)cc4)CC3)cc2)O1 [Compound 15, N-(4-(4-(4-(((2S,4R)-2-(2,4-dichlorophenyl)-2-methyl-1,3-dioxolan-4-yl)methoxy)phenyl)piperazin-1-yl)phenyl)benzamide]	–	> 10	–
C[C@]1(c2ccc(Cl)cc2Cl)OC[C@@H](COc2ccc(N3CCN(c4ccc(NC(=O)c5ccc6ccccc6c5)cc4)CC3)cc2)O1 [Compound 16, N-(4-(4-(4-(((2S,4R)-2-(2,4-dichlorophenyl)-2-methyl-1,3-dioxolan-4-yl)methoxy)phenyl)piperazin-1-yl)phenyl)-2-naphthamide]	–	> 10	–
C[C@]1(c2ccc(Cl)cc2Cl)OC[C@@H](COc2ccc(N3CCN(c4ccc(NC(=O)c5cccnc5)cc4)CC3)cc2)O1 [Compound 18, N-(4-(4-(4-(((2S,4R)-2-(2,4-dichlorophenyl)-2-methyl-1,3-dioxolan-4-yl)methoxy)phenyl)piperazin-1-yl)phenyl)nicotinamide]	> 20	–	–
C[C@]1(c2ccc(Cl)cc2Cl)OC[C@@H](COc2ccc(N3CCN(c4ccc(NC(=O)c5ccncc5)cc4)CC3)cc2)O1 [Compound 19, N-(4-(4-(4-(((2S,4R)-2-(2,4-dichlorophenyl)-2-methyl-1,3-dioxolan-4-yl)methoxy)phenyl)piperazin-1-yl)phenyl)isonicotinamide]	–	> 10	–
C[C@@]1(c2ccc(Cl)cc2Cl)OC[C@@H](COc2ccc(N3CCN(c4ccc(NC(=O)c5cccc(O)c5)cc4)CC3)cc2)O1 [Compound 27, N-(4-(4-(4-(((2R,4R)-2-(2,4-dichlorophenyl)-2-methyl-1,3-dioxolan-4-yl)methoxy)phenyl)piperazin-1-yl)phenyl)-3-hydroxybenzamide]	> 30	–	microsomal CLint (Metabolic stability): < 3 µL/min/mg
C[C@]1(c2ccc(Cl)cc2Cl)OC[C@@H](COc2ccc(N3CCN(c4ccc(NC(=O)c5ccoc5)cc4)CC3)cc2)O1 [Compound 35, N-(4-(4-(4-(((2S,4R)-2-(2,4-dichlorophenyl)-2-methyl-1,3-dioxolan-4-yl)methoxy)phenyl)piperazin-1-yl)phenyl)furan-3-carboxamide]	–	–	Hh pathway inhibition, result in words [3]: inactive
C[C@]1(c2ccc(Cl)cc2Cl)OC[C@@H](COc2ccc(N3CCN(c4ccc(NC(=O)c5ccsc5)cc4)CC3)cc2)O1 [Compound 36, N-(4-(4-(4-(((2S,4R)-2-(2,4-dichlorophenyl)-2-methyl-1,3-dioxolan-4-yl)methoxy)phenyl)piperazin-1-yl)phenyl)thiophene-3-carboxamide]	–	–	Hh pathway inhibition, result in words [3]: inactive
CCC(C)n1ncn(-c2ccc(N3CCN(c4ccc(OCC5COC(Cn6cncn6)(c6ccc(Cl)cc6Cl)O5)cc4)CC3)cc2)c1=O (stereo not shown) [ITZ, Itraconazole]	–	–	Efflux Pump Substrates, BCRP [4]: not a substrate; Efflux Pump Substrates, P-gp (P-glycoprotein (P-gp)): not a substrate; half-life (Metabolic stability): 27 ± 6.2 min

— article PMC7450990 (Journal of medicinal chemistry, 2019)
